# Laboratory results as given in patent US20240270809A1, “ORAL GLP RECEPTOR AGONISTS” (priority 2020, published 2024).
# Where two headings read alike, the source gives them in different places. Positions of bridges follow the written chain, without caps; N, C: chain ends. Non-standard residues stand in square brackets, D forms with d. Residues, ends and D or L forms follow the SMILES beside them. *: point of attachment. Malonyl(2,2-Me2,histaminyl) = CC(C)(C(=O)NCCc1cnc[nH]1)C(=O)*; Ala(1H-tetrazol-5-yl) = N[C@@H](Cc1nnn[nH]1)C(=O)O; αMeL = CC(C)C[C@](C)(N)C(=O)O; Nle = CCCC[C@H](N)C(=O)O; Aib = CC(C)(N)C(=O)O
# Experiments:
# mouse GLP2 receptor = target: T1, mouse GLP2 receptor (Mus musculus, UniProt Q5IXF8); test: cAMP accumulation assay, functional agonism of mouse GLP2 receptor; type: cell-based
# T1 construct: expressed in transfected cells; host or cells: HEK cells, transient transfection with GeneJuice
# T1 sequence (Q5IXF8 1-512): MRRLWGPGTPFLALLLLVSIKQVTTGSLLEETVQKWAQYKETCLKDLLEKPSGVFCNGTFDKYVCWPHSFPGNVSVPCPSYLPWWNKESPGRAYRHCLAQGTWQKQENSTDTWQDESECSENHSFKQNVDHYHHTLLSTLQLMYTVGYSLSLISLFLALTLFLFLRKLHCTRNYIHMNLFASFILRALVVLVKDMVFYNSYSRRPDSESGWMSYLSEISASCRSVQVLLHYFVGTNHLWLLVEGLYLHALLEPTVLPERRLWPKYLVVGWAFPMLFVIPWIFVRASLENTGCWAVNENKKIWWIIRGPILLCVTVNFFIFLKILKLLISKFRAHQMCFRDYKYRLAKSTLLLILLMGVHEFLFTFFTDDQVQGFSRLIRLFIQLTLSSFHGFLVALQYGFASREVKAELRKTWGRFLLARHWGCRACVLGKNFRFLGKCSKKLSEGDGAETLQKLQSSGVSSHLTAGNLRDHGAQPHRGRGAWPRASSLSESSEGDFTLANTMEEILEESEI
# Procedure, shortened: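 Transiently transfected HEK cells (24 h, frozen, 8000/well) in HBSS with 0.5 mM IBMX exposed to compound concentration series for 45 min at 37 °C. cAMP measured by HTRF after lysis and 1 h at RT; pEC50 from four-parameter concentration-response fit.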
# [1] = Stability of peptides in Fasted-State Simulated Intestinal Fluid (FaSSIF); type: in vitro ADME; conditions: FaSSIF with 10 mg/ml pancreatin, 37° C.
# human GLP2 receptor = target: T2, human GLP2 receptor (Homo sapiens, UniProt O95838); test: cAMP accumulation assay, functional agonism of human GLP2 receptor; type: cell-based; conditions: HEK cells infected with human GLP2 receptor BacMam virus, HTRF cAMP; for Emax: HEK293, read-out: Human GLP-2R agonist cAMP Emax; for EC50: read-out: Human GLP-2R agonist cAMP pEC50 (converted)
# T2 construct: expressed in transfected cells; host or cells: HEK cells, BacMam virus transduction
# T2 sequence (O95838 1-553): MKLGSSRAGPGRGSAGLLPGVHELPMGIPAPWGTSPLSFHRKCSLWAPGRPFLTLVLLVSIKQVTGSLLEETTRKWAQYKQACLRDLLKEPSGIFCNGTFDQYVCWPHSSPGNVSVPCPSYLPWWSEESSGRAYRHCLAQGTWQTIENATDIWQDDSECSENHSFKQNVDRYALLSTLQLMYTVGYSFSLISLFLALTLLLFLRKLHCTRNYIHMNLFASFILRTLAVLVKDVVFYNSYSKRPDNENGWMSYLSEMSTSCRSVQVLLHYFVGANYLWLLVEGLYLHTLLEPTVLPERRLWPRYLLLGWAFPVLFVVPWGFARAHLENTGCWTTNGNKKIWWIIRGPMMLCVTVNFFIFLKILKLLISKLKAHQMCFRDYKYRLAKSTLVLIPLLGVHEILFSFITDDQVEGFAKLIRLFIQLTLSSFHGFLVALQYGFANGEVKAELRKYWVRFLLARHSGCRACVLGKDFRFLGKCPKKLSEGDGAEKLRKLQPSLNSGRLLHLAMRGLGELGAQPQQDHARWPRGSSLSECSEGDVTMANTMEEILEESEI
# Procedure, shortened: (§1)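 HEK cells transduced 24 h with human GLP1 or GLP2 receptor BacMam virus, then frozen until use. Agonist stimulation for 45 min at 37 °C in HBSS with 0.5 mM IBMX; cAMP measured by HTRF after lysis.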
# mouse GLP1 receptor = target: T3, mouse GLP1 receptor (Mus musculus, UniProt O35659); test: cAMP accumulation assay, functional agonism of mouse GLP1 receptor; type: cell-based
# T3 construct: expressed in transfected cells; host or cells: HEK cells, transient transfection with GeneJuice
# T3 sequence (O35659 22-463): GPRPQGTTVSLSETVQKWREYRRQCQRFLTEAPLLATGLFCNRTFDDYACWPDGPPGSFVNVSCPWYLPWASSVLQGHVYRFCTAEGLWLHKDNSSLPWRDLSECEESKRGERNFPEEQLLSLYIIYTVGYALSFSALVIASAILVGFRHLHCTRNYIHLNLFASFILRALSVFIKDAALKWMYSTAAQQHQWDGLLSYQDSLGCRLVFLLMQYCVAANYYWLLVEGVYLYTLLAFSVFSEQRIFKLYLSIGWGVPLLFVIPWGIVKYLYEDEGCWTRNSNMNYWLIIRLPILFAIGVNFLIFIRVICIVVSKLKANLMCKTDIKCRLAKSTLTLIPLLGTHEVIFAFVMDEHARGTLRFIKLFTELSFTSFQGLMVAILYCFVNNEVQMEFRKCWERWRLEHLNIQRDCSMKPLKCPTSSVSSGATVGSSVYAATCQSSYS
# Method: CAMP production upon agonist stimulation of mouse GLP2 or GLP1 receptors was assessed utilizing HiRange cAMP kit (Cisbio). In brief, HEK cells were transiently transfected for 24 hours with cDNA using GeneJuice Transfection reagent (EMD Millipore) and frozen at −80° C. for later use in the assay. […] Cells were prepared in the assay buffer (HBSS (Lonza) supplemented with 0.5 mM IBMX (Tocris)). After 45 min incubation at 37° C., the reaction was stopped by addition of the HTRF detection reagents in the lysis buffer provided in the kit. Following 1-hour incubation at RT, plates were read on Pherastar FS (BMG Labtech, Inc.) using standard HTRF settings. Dotmatics Studies software was used for calculation of pEC50 values by fitting data to a four-parameter concentration response curve.
# human GLP1 receptor = target: T4, human GLP1 receptor (Homo sapiens, UniProt P43220); test: cAMP accumulation assay, functional agonism of human GLP1 receptor; type: cell-based; conditions: HEK cells infected with human GLP1 receptor BacMam virus, HTRF cAMP; for Emax: HEK293, read-out: Human GLP-1R agonist cAMP Emax; for EC50: read-out: Human GLP-1R agonist cAMP pEC50 (converted)
# T4 construct: expressed in transfected cells; host or cells: HEK cells, BacMam virus transduction
# Procedure, shortened: as §1
# [2] = HEK293, HEK cells transiently transfected with mouse GLP2 receptor, HTRF cAMP, read-out: Mouse GLP-2R agonist cAMP Emax
# [3] = HEK cells transiently transfected with mouse GLP2 receptor, HTRF cAMP, read-out: Mouse GLP-2R agonist cAMP pEC50 (converted)
# [4] = HEK293, HEK cells transiently transfected with mouse GLP1 receptor, HTRF cAMP, read-out: Mouse GLP-1R agonist cAMP Emax
# [5] = HEK cells transiently transfected with mouse GLP1 receptor, HTRF cAMP, read-out: Mouse GLP-1R agonist cAMP pEC50 (converted)
# T4 sequence (P43220 24-463): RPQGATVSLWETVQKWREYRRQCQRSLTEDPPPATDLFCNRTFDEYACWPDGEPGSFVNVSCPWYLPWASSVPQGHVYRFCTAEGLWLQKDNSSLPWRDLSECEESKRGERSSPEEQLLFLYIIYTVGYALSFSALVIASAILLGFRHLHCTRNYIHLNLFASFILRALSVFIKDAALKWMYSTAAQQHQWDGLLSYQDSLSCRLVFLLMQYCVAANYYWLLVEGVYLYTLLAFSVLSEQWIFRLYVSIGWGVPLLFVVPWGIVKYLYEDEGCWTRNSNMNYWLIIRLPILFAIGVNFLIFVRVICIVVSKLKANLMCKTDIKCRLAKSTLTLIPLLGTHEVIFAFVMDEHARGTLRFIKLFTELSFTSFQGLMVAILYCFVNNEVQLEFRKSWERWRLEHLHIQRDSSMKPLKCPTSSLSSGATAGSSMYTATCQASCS
SMILES,Emax (mouse GLP2 receptor; [2]) [%],EC50 (mouse GLP2 receptor; [3]) [nM],"remaining at 0.5 h ([1]; t=30 mins, pH 6.5, 10 mg/ml pancreatin) [%]",Emax (human GLP2 receptor) [%],EC50 (human GLP2 receptor) [nM],Emax (mouse GLP1 receptor; [4]) [%],EC50 (mouse GLP1 receptor; [5]) [nM],Emax (human GLP1 receptor) [%],EC50 (human GLP1 receptor) [nM],"remaining at 0.25 h ([1]; FaSSIF pH 6.5 with 10 mg/ml pancreatin, t = 15 mins) [%]",EC50 (mouse GLP2 receptor) [nM],"Emax (mouse GLP2 receptor; HEK293, read-out: Mouse GLP-2R agonist cAMP Emax) [%]",EC50 (mouse GLP1 receptor) [nM],"Emax (mouse GLP1 receptor; HEK293, read-out: Mouse GLP-1R agonist cAMP Emax) [%]"
"CCCC[C@@H]1NC(=O)[C@H](CCC(=O)O)NC(=O)[C@@H](NC(=O)[C@H](CO)NC(=O)[C@H](Cc2ccccc2)NC(=O)[C@H](CO)NC(=O)CNC(=O)[C@H](Cc2nn[nH]n2)NC(=O)C(C)(C)C(=O)NCCc2c[nH]cn2)CCCCNC(=O)C[C@@H](C(=O)N[C@H](C(=O)N[C@@H](CC(C)C)C(=O)N[C@@H](CC(=O)O)C(=O)N[C@H]2CC(=O)NCCCC[C@@H](C(=O)N[C@@H](CC(=O)O)C(=O)N[C@@H](Cc3ccccc3)C(=O)N[C@H](C(=O)N[C@@H](CC(N)=O)C(=O)N[C@@H](Cc3c[nH]c4ccccc34)C(=O)N[C@@H](CC(C)C)C(=O)N[C@H](C(=O)N[C@@H](CCC(N)=O)C(=O)N[C@H](C(=O)N[C@H]3CCC(=O)NCCCC[C@@H](C(N)=O)NC(=O)[C@H]([C@@H](C)O)NC(=O)[C@H]([C@@H](C)CC)NC3=O)[C@@H](C)O)[C@@H](C)CC)[C@@H](C)CC)NC(=O)[C@H](C)NC(=O)[C@H](C)NC(=O)[C@H](CCCCN)NC2=O)[C@@H](C)CC)NC(=O)[C@@H](Cc2ccccc2)NC1=O [Example 1] ({Malonyl(2,2-Me2,histaminyl)}-[Ala(1H-tetrazol-5-yl)]GSFSKE[Nle][dF]DILDDKAAKDFINWLIQTEITK-NH2; lactam 6-10, 14-18, 28-31)",97.7,10,5,103,0.398,91.5,0.126,90.1,0.794,–,–,–,–,–
CCCC[C@H](NC(=O)[C@H](CCC(=O)O)NC(=O)[C@H](CC(=O)O)NC(=O)[C@H](CO)NC(=O)[C@H](Cc1ccccc1)NC(=O)[C@H](CO)NC(=O)CNC(=O)[C@H](CC(=O)O)NC(=O)C(C)(C)NC(=O)[C@@H](N)Cc1c[nH]cn1)C(=O)N[C@H](Cc1ccccc1)C(=O)N[C@H]1CCC(=O)NCCCC[C@@H](C(=O)N[C@@H](CCCCN)C(=O)N[C@@H](C)C(=O)N[C@@H](C)C(=O)N[C@@H](CCCCN)C(=O)N[C@@H](CC(=O)O)C(=O)N[C@@H](Cc2ccccc2)C(=O)N[C@H](C(=O)N[C@@H](CC(N)=O)C(=O)N[C@@H](Cc2c[nH]c3ccccc23)C(=O)N[C@@H](CC(C)C)C(=O)N[C@H](C(=O)N[C@@H](CCC(N)=O)C(=O)N[C@H](C(=O)N[C@@H](CCCCN)C(=O)N[C@H](C(=O)N[C@H](C(=O)N[C@@H](CC(=O)O)C(N)=O)[C@@H](C)O)[C@@H](C)CC)[C@@H](C)O)[C@@H](C)CC)[C@@H](C)CC)NC(=O)[C@H](CC(=O)O)NC(=O)[C@H](CC(C)C)NC(=O)[C@H]([C@@H](C)CC)NC1=O [Example 87] (H-H[Aib]DGSFSDE[Nle][dF]EILDKKAAKDFINWLIQTKITD-NH2; lactam 12-16 (inferred); C-terminus assumed),99.2,0.00631,–,102,0.00251,91.4,0.631,98.7,2.51,1.7,–,–,–,–
"CCCC[C@H](NC(=O)[C@H](CCC(=O)O)NC(=O)[C@H](CC(=O)O)NC(=O)[C@H](CO)NC(=O)[C@H](Cc1ccccc1)NC(=O)[C@H](CO)NC(=O)[C@@H](C)NC(=O)[C@H](Cc1nn[nH]n1)NC(=O)C(C)(C)C(=O)NCCc1c[nH]cn1)C(=O)N[C@H](Cc1ccccc1)C(=O)N[C@H](C(=O)N[C@@](C)(CC(C)C)C(=O)N[C@@H](CC(C)C)C(=O)N[C@@H](CC(=O)O)C(=O)N[C@H]1CCC(=O)NCCCC[C@@H](C(=O)N[C@@H](CC(=O)O)C(=O)N[C@@H](Cc2ccccc2)C(=O)N[C@H](C(=O)N[C@H]2CCC(=O)NCCCC[C@@H](C(=O)N[C@H](C(=O)N[C@@H](CCCCN)C(=O)N[C@H](C(=O)N[C@H](C(=O)N[C@@H](Cc3ccccc3)C(N)=O)[C@@H](C)O)[C@@H](C)CC)[C@@H](C)O)NC(=O)[C@H]([C@@H](C)CC)NC(=O)[C@H](CC(C)C)NC(=O)[C@H](Cc3c[nH]c4ccccc34)NC2=O)[C@@H](C)CC)NC(=O)[C@H](C)NC(=O)[C@H](C)NC(=O)[C@H](CCCCN)NC1=O)[C@@H](C)O [Example 116] ({Malonyl(2,2-Me2,histaminyl)}-[Ala(1H-tetrazol-5-yl)][dA]SFSDE[Nle][dF]T[αMeL]LDEKAAKDFIEWLIKTKITF-NH2; lactam 14-18, 22-26 (inferred); C-terminus assumed)",99.9,0.316,–,103,0.00794,95.5,0.2,94.4,0.316,–,–,–,–,–
"CCCC[C@H](NC(=O)[C@H](CCC(=O)O)NC(=O)[C@H](CC(=O)O)NC(=O)[C@H](CO)NC(=O)[C@H](Cc1ccccc1)NC(=O)[C@H](CO)NC(=O)[C@@H](C)NC(=O)[C@H](Cc1nn[nH]n1)NC(=O)C(C)(C)C(=O)NCCc1c[nH]cn1)C(=O)N[C@H](Cc1ccccc1)C(=O)N[C@H](C(=O)N[C@@](C)(CC(C)C)C(=O)N[C@@H](CC(C)C)C(=O)N[C@@H](CC(=O)O)C(=O)N[C@H]1CCC(=O)NCCCC[C@@H](C(=O)N[C@@H](CC(=O)O)C(=O)N[C@@H](Cc2ccccc2)C(=O)N[C@H](C(=O)N[C@H]2CCC(=O)NCCCC[C@@H](C(=O)N[C@H](C(=O)N[C@@H](CCCCN)C(N)=O)[C@@H](C)O)NC(=O)[C@H]([C@@H](C)CC)NC(=O)[C@H](CC(C)C)NC(=O)[C@H](Cc3c[nH]c4ccccc34)NC2=O)[C@@H](C)CC)NC(=O)[C@H](C)NC(=O)[C@H](C)NC(=O)[C@H](CCCCN)NC1=O)[C@@H](C)O [Example 117] ({Malonyl(2,2-Me2,histaminyl)}-[Ala(1H-tetrazol-5-yl)][dA]SFSDE[Nle][dF]T[αMeL]LDEKAAKDFIEWLIKTK-NH2; lactam 14-18, 22-26; C-terminus assumed)",–,–,–,103,0.00316,–,–,94.7,0.126,–,0.158,99.3,0.0794,96.9
